Laboratory results reported in US8207178B2 (priority 2007, dated 2012).
Read-outs that look alike come from different tables or passages of the source.

Assays:
Assay in all cases: microbe, parasite or virus in culture
Type in all cases: cell-based, human immunodeficiency virus type 1 (HIV-1)
wild type HIV-1 = test system: wild type HIV-1
HIV-1 K103N-Y181C mutant = settings: Human immunodeficiency virus 1, HeLa, read-out: EC50 mutant K103N-Y181C
HIV-1 Y188L mutant = settings: Human immunodeficiency virus 1, HeLa, read-out: EC50 mutant Y188L
HIV-1 K103N mutant = settings: Human immunodeficiency virus 1, HeLa, read-out: EC50 mutant K103N
HIV-1 K103N-L100I mutant = test system: HIV-1 K103N-L100I mutant
[1] = Human immunodeficiency virus 1, Hela-JC53
[2] = Human immunodeficiency virus 1, HeLa, read-out: EC50 mutant K103N-L100I, mutant K103N-L100I

Compound	EC50 (wild type HIV-1; [1]) [µM]	EC50 (HIV-1 K103N-Y181C mutant) [µM]	EC50 (HIV-1 Y188L mutant) [µM]	EC50 (HIV-1 K103N mutant) [µM]	EC50 (HIV-1 K103N-L100I mutant; [2]) [µM]	EC50 (wild type HIV-1) [µM]	EC50 (HIV-1 K103N-L100I mutant; read-out: EC50 mutant K103N-L100I, mutant K103N-L100I) [µM]
Cc1cc(-c2ccncc2)cc(C)c1Oc1nc(Nc2ccc(C#N)cc2)nc2ccn(C)c12 [Example 1, 4-(4-(2,6-Dimethyl-4-(pyridin-4-yl)phenoxy)-5-methyl-5H-pyrrolo[3,2-d]pyrimidin-2-ylamino)benzonitrile]	0.001 to 0.01	0.001 to 0.01	0.001 to 0.01	< 0.001	0.001 to 0.01	–	–
Cc1cc(-c2ccncc2F)cc(C)c1Oc1nc(Nc2ccc(C#N)cc2)nc2ccn(C)c12 [Example 2, 4-(4-(4-(3-Fluoropyridin-4-yl)-2,6-dimethylphenoxy)-5-methyl-5H-pyrrolo[3,2-d]pyrimidin-2-ylamino) benzonitrile]	0.001 to 0.01	0.001 to 0.01	> 0.01	0.001 to 0.01	0.001 to 0.01	–	–
Cc1cc(-c2ccnc(F)c2)cc(C)c1Oc1nc(Nc2ccc(C#N)cc2)nc2ccn(C)c12 [Example 3, 4-(4-(4-(2-Fluoropyridin-4-yl)-2,6-dimethylphenoxy)-5-methyl-5H-pyrrolo[3,2-d]pyrimidin-2-ylamino) benzonitrile]	0.001 to 0.01	> 0.01	> 0.01	0.001 to 0.01	0.001 to 0.01	–	–
Cc1cc(-c2ccncc2C#N)cc(C)c1Oc1nc(Nc2ccc(C#N)cc2)nc2ccn(C)c12 [Example 5, 4-(4-(2-(4-Cyanophenylamino)-5-methyl-5H-pyrrolo[3,2-d]pyrimidin-4-yloxy)-3,5-dimethylphenyl)nicotinonitrile]	–	0.001 to 0.01	> 0.01	< 0.001	–	< 0.001	< 0.001
Cc1cc(-c2ccnc(C#N)c2)cc(C)c1Oc1nc(Nc2ccc(C#N)cc2)nc2ccn(C)c12 [Example 6, 4-(4-(2-(4-Cyanophenylamino)-5-methyl-5H-pyrrolo[3,2-d]pyrimidin-4-yloxy)-3,5-dimethylphenyl)picolinonitrile]	0.001 to 0.01	> 0.01	> 0.01	0.001 to 0.01	0.001 to 0.01	–	–
Cc1cnccc1-c1cc(C)c(Oc2nc(Nc3ccc(C#N)cc3)nc3ccn(C)c23)c(C)c1 [Example 7, 4-(4-(2,6-Dimethyl-4-(3-methylpyridin-4-yl)phenoxy)-5-methyl-5H-pyrrolo [3,2-d]pyrmidin-2-ylamino)benzonitrile]	0.001 to 0.01	0.001 to 0.01	> 0.01	0.001 to 0.01	0.001 to 0.01	–	–
Cc1cc(-c2cc(C)c(Oc3nc(Nc4ccc(C#N)cc4)nc4ccn(C)c34)c(C)c2)ccn1 [Example 8, 4-(4-(2,6-Dimethyl-4-(2-methylpyridin-4-yl)phenoxy)-5-methyl-5H-pyrrolo[3,2-d]pyrimidin-2-ylamino) benzonitrile]	0.001 to 0.01	> 0.01	> 0.01	> 0.01	> 0.01	–	–
Cc1cc(-c2cccc(C#N)c2)cc(C)c1Oc1nc(Nc2ccc(C#N)cc2)nc2ccn(C)c12 [Example 16, 4′-(2-(4-Cyanophenylamino)-5-methyl-5H-pyrrolo[3,2-d]pyrimidin-4-yloxy)-3′,5′-dimethylbiphenyl-3-carbonitrile]	0.001 to 0.01	> 0.01	> 0.01	> 0.01	> 0.01	–	–
Cc1cc(-c2cccc(C#N)n2)cc(C)c1Oc1nc(Nc2ccc(C#N)cc2)nc2ccn(C)c12 [Example 17, 6-(4-(2-(4-Cyanophenylamino)-5-methyl-5H-pyrrolo[3,2-d]pyrimidin-4-yloxy)-3,5-dimethylphenyl)picolinonitrile]	0.001 to 0.01	> 0.01	> 0.01	0.001 to 0.01	0.001 to 0.01	–	–
Cc1cc(-c2cn[nH]c2)cc(C)c1Oc1nc(Nc2ccc(C#N)cc2)nc2ccn(C)c12 [Example 24, 4-(4-(2,6-Dimethyl-4-(1H-pyrazol-4-yl)phenoxy)-5-methyl-5H-pyrrolo[3,2-d]pyrimidin-2-ylamino)-benzonitrile]	< 0.001	> 0.01	0.001 to 0.01	0.001 to 0.01	0.001 to 0.01	–	–
Cc1cc(-c2ccncc2)cc(C)c1Oc1nc(Nc2ccc(C#N)cc2)nc2nc[nH]c12 [Example 29, 4-(6-(2,6-Dimethyl-4-(pyridin-4-yl)phenoxy)-7H-purin-2-ylamino)benzonitrile]	< 0.001	0.001 to 0.01	0.001 to 0.01	< 0.001	0.001 to 0.01	–	–
Cc1cc(-c2ccc(C(N)=O)cc2)cc(C)c1Oc1nc(Nc2ccc(C#N)cc2)nc2nc[nH]c12 [Example 45, 4′-(2-(4-Cyanophenylamino)-7H-purin-6-yloxy)-3′,5′-dimethylbiphenyl-4-carboxamide]	< 0.001	0.001 to 0.01	0.001 to 0.01	0.001 to 0.01	0.001 to 0.01	–	–
Cc1cc(-c2ccc(S(N)(=O)=O)cc2)cc(C)c1Oc1nc(Nc2ccc(C#N)cc2)nc2nc[nH]c12 [Example 46, 4′-(2-(4-Cyanophenylamino)-7H-purin-6-yloxy)-3′,5′-dimethylbiphenyl-4-sulfonamide]	0.001 to 0.01	0.001 to 0.01	> 0.01	0.001 to 0.01	> 0.01	–	–
Cc1cc(-c2ccc(C(N)=O)cc2F)cc(C)c1Oc1nc(Nc2ccc(C#N)cc2)nc2ccn(C)c12 [Example 50, 4′-(2-(4-Cyanophenylamino)-5-methyl-5H-pyrrolo[3,2-d]pyrimidin-4-yloxy)-2-fluoro-3′,5′-dimethylbiphenyl-4-carboxamide]	0.001 to 0.01	0.001 to 0.01	> 0.01	0.001 to 0.01	0.001 to 0.01	–	–
Cc1cc(-c2ccc(S(N)(=O)=O)cc2)cc(C)c1Oc1nc(Nc2ccc(C#N)cc2)nc2ncn(C)c12 [Example 53, 4′-(2-(4-Cyanophenylamino)-7-methyl-7H-purin-6-yloxy)-3′,5′-dimethylbiphenyl-4-sulfonamide]	0.001 to 0.01	0.001 to 0.01	> 0.01	0.001 to 0.01	0.001 to 0.01	–	–
Cc1cc(-c2ccc(S(N)(=O)=O)cc2)cc(Cl)c1Oc1nc(Nc2ccc(C#N)cc2)nc2ncn(C)c12 [Example 115, 3′-chloro-4′-(2-(4-cyanophenylamino)-7-methyl-7H-purin-6-yloxy)-5′-methylbiphenyl-4-sulfonamide]	< 0.001	–	–	–	< 0.001	–	–
Cc1cc(-c2ccc(C(N)=O)cc2)cc(Cl)c1Oc1nc(Nc2ccc(C#N)cc2)nc2ncn(C)c12 [Example 116, 3′-chloro-4′-(2-(4-cyanophenylamino)-7-methyl-7H-purin-6-yloxy)-5′-methylbiphenyl-4-carboxamide]	< 0.001	–	–	–	0.001 to 0.01	–	–
Cc1cc(-c2ccc(C(N)=O)cc2)cc(Cl)c1Oc1nc(Nc2ccc(C#N)cc2)nc2c1ncn2C [Example 117, 3′-chloro-4′-(2-(4-cyanophenylamino)-9-methyl-9H-purin-6-yloxy)-5′-methylbiphenyl-4-carboxamide]	< 0.001	–	–	–	0.001 to 0.01	–	–
Cc1cc(-c2ccc(C(N)=O)nc2)cc(C)c1Oc1nc(Nc2ccc(C#N)cc2)nc2ncn(C)c12 [Example 118, 5-(4-(2-(4-cyanophenylamino)-7-methyl-7H-purin-6-yloxy)-3,5-dimethylphenyl)picolinamide]	0.001 to 0.01	–	–	–	0.001 to 0.01	–	–
Cc1cc(-c2ccc(C(N)=O)nc2)cc(C)c1Oc1nc(Nc2ccc(C#N)cc2)nc2c1ncn2C [Example 119, 5-(4-(2-(4-cyanophenylamino)-9-methyl-9H-purin-6-yloxy)-3,5-dimethylphenyl)picolinamide]	< 0.001	–	–	–	> 0.01	–	–
CCOC(=O)c1ccc(-c2cc(C)c(Oc3nc(Nc4ccc(C#N)cc4)nc4nc[nH]c34)c(C)c2)cn1 [Example 120, Ethyl 5-(4-(2-(4-cyanophenylamino)-7H-purin-6-yloxy)-3,5-dimethylphenyl)picolinate]	> 0.01	–	–	–	> 0.01	–	–
Cc1cc(-c2ccc(C(N)=O)cn2)cc(C)c1Oc1nc(Nc2ccc(C#N)cc2)nc2c1ncn2C [Example 124, 6-(4-(2-(4-cyanophenylamino)-9-methyl-9H-purin-6-yloxy)-3,5-dimethylphenyl)nicotinamide]	0.001 to 0.01	–	–	–	> 0.01	–	–
Cc1cc(-c2ccc(C(=O)N3CCC3)cn2)cc(C)c1Oc1nc(Nc2ccc(C#N)cc2)nc2[nH]cnc12 [Example 125, 4-(6-(4-(5-(azetidine-1-carbonyl)pyridin-2-yl)-2,6-dimethylphenoxy)-9H-purin-2-ylamino)benzonitrile]	0.001 to 0.01	–	–	–	0.001 to 0.01	–	–
Cc1cc(-c2ccc(C(=O)N3CCC(C#N)C3)cn2)cc(C)c1Oc1nc(Nc2ccc(C#N)cc2)nc2[nH]cnc12 (stereo not drawn) [Example 127, 1-(6-(4-(2-(4-cyanophenylamino)-9H-purin-6-yloxy)-3,5-dimethylphenyl)nicotinoyl)pyrrolidine-3-carbonitrile]	> 0.01	–	–	–	> 0.01	–	–
Cc1cc(-c2ccc(C(=O)N(C)C)cn2)cc(C)c1Oc1nc(Nc2ccc(C#N)cc2)nc2[nH]cnc12 [Example 128, 6-(4-(2-(4-cyanophenylamino)-9H-purin-6-yloxy)-3,5-dimethylphenyl)-N,N-dimethylnicotinamide]	0.001 to 0.01	–	–	–	> 0.01	–	–
Cc1cc(-c2ccc(C(N)=O)nc2)cc(C)c1Oc1nc(Nc2ccc(C#N)cc2)nc2[nH]cnc12 [Example 129, 5-(4-(2-(4-cyanophenylamino)-9H-purin-6-yloxy)-3,5-dimethylphenyl)picolinamide]	0.001 to 0.01	–	–	–	> 0.01	–	–
COC(=O)c1ccc(-c2cc(C)c(Oc3nc(Nc4ccc(C#N)cc4)nc4[nH]cnc34)c(C)c2)cn1 [Example 130, Methyl 5-(4-(2-(4-cyanophenylamino)-9H-purin-6-yloxy)-3,5-dimethylphenyl)picolinate]	0.001 to 0.01	–	–	–	> 0.01	–	–
